Values quoted from earlier work in article PMC5766731 (Clinical Pharmacokinetics, 2017).

Settings: cited from earlier work

## O=C(O)CNC(=O)c1ncc(-c2cccc(Cl)c2)cc1O [vadadustat]
  pharmacokinetics in CKD patients (stages 3 and 4): not found to be significantly altered
Healthy subjects
  renal CL mechanisms, share of the radioactive dose: approximately 59%
